Several values for one entry are separate records, joined by “and”; a condition that tells them apart may be missing. Equal entries are not always repeated.
Legend:
[1] = Dynamics of body weight of rabbits (Schemes A and B); assay type: in vivo, male rabbits of Californian breed; settings: for Body weight: Scheme A, M ± SEM
Excerpt: The animals used in this experiment were involved reproductive male rabbits of Californian breed. 144 rabbits were used. The weight of the animals at the beginning of the trial ranged from 2.5 to 3 kg; the animals were 8 weeks old. Before the study the laboratory animals were contained for 27 and for 37 days in the separate coops for adaptation. During this period, clinical condition of animals was controlled every day by visual inspection. The criteria of the inclusion of animals in the experiment were health and body weight.
The introduction of drugs under two schemes was used to determine the mechanism of action of the studied drugs and the impact on the different stages of atherosclerosis.
Cholesterol administered daily in an oil solution at 0.3 g/kg of animal body weight, one time, 4 hours after drug administration. Cholesterol was dissolved in hot sunflower oil and administered to the animals through noninvasive probe into the stomach. The duration of administration amounted cholesterol from 1 to 90 days in subgroup A and 1 to 120 days in subgroup B. 2. After 30 days from the initiation of administration of cholesterol vitamin D3 (cholecalciferol) in a dose of 0.256 ml/kg was added to the diet of animals to enhance aortic lipidosis. Cholecalciferol was administered intragastrically via a probe from 31 till 60 days (Scheme A and B). […] In order to gain atherosclerotic lesions in aorta and atherosclerosis induction time reduction the animals were administered a dose of epinephrineequal to 0.04 mg/kg intravenously since 31 till 60 every five days (Scheme A and B).
Animal body weight was measured in accordance with standard procedures prior to the study, then—weekly (for calculating the volume of administration of the test compound and the reference drug) and immediately before euthanasia (on days 60 and 120)—to calculate the weight gain.
The administration was carried out intragastrically in accordance with standard procedures using atraumatic probe according to two treatment regimens every day at the same time.

[2] = system: experimental rat hypercholesterolemia model; assay: Biochemical blood analysis (drug toxicity parameters) in rat hypercholesterolemia model; assay type: in vivo, male rats of Wistar line
Method: (§1) Evaluation of hypocholesterolemic efficacy and safety of pharmaceutical combination was performed in vivo in experimental rat hypercholesterolemia model.
(§2) For 90 days the studied animals received hypercholesterol diet for pathology induction. The diet included Cholesterol+Cholic acid+Overheated fats (deep fat).
(§3) Drugs were introduced intragastrically with an esophageal bougie daily on Day 31-90 of the study at the same time of day.
Biochemical parameters and activity of serum enzymes (aspartate- and alanine aminotransferase, creatine phosphokinase, urea, serum amylase, total bilirubin, direct bilirubin, indirect bilirubin, serum glucose, cations K^+, Na^+).
1.0-1.84 ml blood samples for the study of biochemical parameters were taken from tail vein of rats. Blood samples were taken from the animals after 14-15-hour's fasting at same time of day (9.00-11.00). For biochemical parameters tests a Biochemical Analyzer A-25 (Biosystems, Spain) was used.
Vol. 4. pp. 1794-1798; Pearlman F C and Lee R T Y. Clin Chem 1974, 20, 447-453; Zoppi F et al, Peracino A., Fenili D., Marcovina S. and Ramella C. Giorn It Chim Cl. […] C. et al Clin Chem. 1974. Vol. 20. pp. 470-475; and in Meiattini F., et al, Clin Chem. 1978. Vol. 24. pp. 2161-2165 (total cholesterol); Warnick G R et al. Clin Chem 2001, 47, 1579-96 (HDL/LDL); Bucolo G and David H. Clin Chem. 1973.-Vol. 19. pp. 476-482; and in Fossati P. and, Prencipe L., Clin Chem. 1982. Vol. 28. pp. 2077-2080 (triglycerides); Trinder P. Ann Clin Biochem. 1969. Vol. 6. pp. 24-27).

[3] = system: experimental rat hypercholesterolemia model; assay: Lipid spectrum of blood in experimental rat hypercholesterolemia model; assay type: in vivo, male rats of Wistar line; settings: dose 108 mg
Method: The animals used were male rats of Wistar line. […] The proposed model using rats as the experimental animals is a reproducible standard model for evaluation of hypocholesterolemic effect.
as §1, §2
For 90 days the animals received the said ration ad libitum (30 g feed per animal). Development of hypercholesterolemia in animals was evaluated based on changes in lipid spectrum parameters on Day 30 of the study.
as §3
Biochemical parameters and activity of blood serum enzymes (total cholesterol (CHS), LDL-CHS, HDL-CHS, triglycerides.
1.0-1.84 ml blood samples for the study of biochemical parameters were taken from tail vein of rats. Blood samples were taken from the animals after 14-15-hour's fasting at same time of day (9.00-11.00). For biochemical parameters tests a Biochemical Analyzer A-25 (Biosystems, Spain) was used. […]

[4] = Mass coefficients of organs (pancreas, liver, kidneys) of rats; assay type: in vivo, male rats of Wistar line; settings: for weight coefficient, Kidneys / weight coefficient, Liver: in %
Method: To calculate mass coefficients the pancreas, liver and kidneys of the animals were extracted. The organs were weighed and the mass coefficients were calculated by the following formula:
Mass coefficient=(organ weight/animal body weight)×100%

[5] = Mass coefficients of liver and pancreas of rabbits; assay type: in vivo, male rabbits of Californian breed; settings: for Mass ratios, M ± SEM, Liver / Mass ratios, M ± SEM, Pancreas: dose 100 mg; for pancreatic mass coefficients relative to the control group: rosuvastatin 40 mg, AGA 100 mg
[6] = Day 30 of treatment (Day 60 of study), dose 108 mg
[7] = blood, Day 60 of the treatment (Day 90 of the study), RV + AGA 10 + 108 mg, RV 10 mg, AGA 108 mg
[8] = blood, Day 60 of the treatment (Day 90 of the study), SV + AGA 20 + 108 mg, SV 20 mg, AGA 108 mg
[9] = Day 30 of treatment (Day 60 of study)
[10] = Day 60 of treatment (Day 90 of study)
[11] = (organ weight/animal body weight)×100%, Day 90 of study, dose 108 mg
[12] = M ± m, RV + AGA 10 + 108 mg, RV 10 mg, AGA 108 mg

## CC1(C)[C@@H](O[C@H]2O[C@H](C(=O)O)[C@@H](O)[C@H](O)[C@H]2O[C@@H]2O[C@H](C(=O)O)[C@@H](O)[C@H](O)[C@H]2O)CC[C@]2(C)[C@H]3C(=O)C=C4[C@@H]5C[C@@](C)(C(=O)O)CC[C@]5(C)CC[C@@]4(C)[C@]3(C)CC[C@@H]12.N [AGA, Monoammonium glycyrrhizinate]
[1]; Day 0 (Before the study), dose group 100 mg (Table 37)
  Body weight: 2936 ± 150 g
[1]; Day 28 (in the setting of pathology without treatment), dose group 100 mg (Table 37)
  Body weight: 3369 ± 168 g
[1]; Day 90 (in the setting of pathology with treatment), dose 100 mg (Table 37)
  Body weight: 3955 ± 119 g
[1]; Scheme B, day 120, rosuvastatin+AGA 20+200 mg, atorvastatin+AGA 20+100 mg, AGA 100 mg
  body weight versus control animals: significantly lower
[1]; Scheme B, dose 100 mg
  Body weight, M ± SEM, Day 120 (in the setting of pathology with treatment): 4150 ± 144^2 g
[1]; Scheme B, dose 100 mg, baseline
  Body weight, M ± SEM, Day 0 (Before the study): 2809 ± 145 g
[1]; Scheme B, dose 100 mg, before treatment
  Body weight, M ± SEM, Day 56 (in the setting of pathology without treatment): 3569 ± 164 g
[2]; [6]
  ALT: 98 U/l
  AST: 130 U/l
  Amylase: 620 U/l
  Bilirubin direct: 2.1 mg/dL
  Bilirubin indirect: 1.8 mg/dL
  Bilirubin total: 4.1 mg/dL
  CPK: 310 U/l and 312 U/l
  Glucose: 112 mg/dL
  Potassium: 2.7 mM
  Sodium: 120 mmol
  Urea: 6.8 mmol/L
[2]; [7]
  ALT: 100 U/l
  AST: 131 U/l
  Amylase: 600 U/l
  Bilirubin direct: 2.3 mg/dL
  Bilirubin indirect: 1.9 mg/dL
  Bilirubin total: 2.9 mg/dL
  CPK: 310 U/l
  Glucose: 110 mg/dL
  Potassium: 3.2 mM
  Sodium: 122 mmol
  Urea: 5.5 mmol/L
[2]; [8]
  ALT: 100 U/l
  AST: 131 U/l
  Amylase: 600 U/l
  Bilirubin direct: 2.3 mg/dL
  Bilirubin indirect: 1.9 mg/dL
  Bilirubin total: 2.9 mg/dL
  CPK: 310 U/l
  Glucose: 110 mg/dL
  Potassium: 3.2 mM
  Sodium: 122 mmol
  Urea: 5.5 mmol/L
[3]; [9]
  HDL CHS: 0.53 ± 0.05 mmol/L
  LDL CHS: 4.40 ± 0.4 mmol/L
  TG: 1.5 ± 0.11 mmol/L
  Total CHS: 5.8 ± 0.5 mmol/L
[3]; [10]
  HDL CHS: 0.63 ± 0.05 mmol/L
  LDL CHS: 3.80 ± 0.3 mmol/L
  TG: 1.30 ± 0.12 mmol/L
  Total CHS: 4.5 ± 0.4 mmol/L
[4]; [11]
  weight coefficient, Pancreas: 0.21 ± 0.01^2
  weight coefficient, Kidneys: 0.81 ± 0.02
  weight coefficient, Liver: 4.40 ± 0.09
[4]; [12]
  weight coefficient, Pancreas: 0.22 ± 0.01^2
  weight coefficient, Kidneys: 0.81 ± 0.01
  weight coefficient, Liver: 4.41 ± 0.08
[5]; Scheme A
  Mass ratios, M ± SEM, Liver: 3.3 ± 0.1
  Mass ratios, M ± SEM, Pancreas: 0.05 ± 0.003
  pancreatic mass coefficients relative to the control group: Statistically significant decrease
[5]; Scheme B
  Mass ratios, M ± SEM, Liver: 3.0 ± 0.2
  Mass ratios, M ± SEM, Pancreas: 0.06 ± 0.004^
  pancreatic mass coefficients relative to the control group: statistically significant decrease
